Laboratory results taken from patent publication US20260000496A1, “MATERIALS AND METHODS FOR DRUG-INDUCED GINGIVAL OVERGROWTH” (Optimed Technology, Inc., priority 2019, published 2026).

What was measured:
LITAF = assay: Mice study #2: LITAF immunoblotting of gingival samples; format: in vivo, C57BL/6 mice; conditions: pattern as for Myd88 (disease higher than control and treatment)
Experimental: Western blot analysis. Cells were seeded in 60 mm plates with a density of 5×10^5 cells per plate and washed briefly with Dulbecco's phosphate-buffered saline (Gibco, Waltham, MA, USA). Whole cell lysates were prepared using RIPA lysis buffer containing protease inhibitor cocktail (Sigma-Aldrich). Total protein concentration was determined using the BCA reagent (Pierce, Waltham, MA, USA). 20 μg of total protein were resolved on sodium dodecyl sulfate-polyacrylamide gel electrophoresis and transferred to polyvinylidenedifluoride membrane and immunoblotted. The blots were incubated for 1 h in 1% bovine serum albumin (BSA) (Sigma-Aldrich) to block the non-specific bindings followed by over-night incubation in primary antibodies (MyD88 and pP65 from Cell Signaling Technology, and human LITAF ThermoFisher Sigma) at 4° C. on shaker. Next day, blots were washed for three times (10 min each) in Tris-buffered saline containing 1% Tween20 (TBST) followed by incubation with secondary antibody (Goat anti-rabbit IgG HRP) with 1:10,000 dilution for 1 h. […] The band intensities were quantified using software ImageJ (NIH, USA) and relative protein levels were normalized by β-actin (Cell Signaling). […] The band intensities were measured by the software ImageJ (NIH, USA), and relative protein levels were normalized by β-actin.

TLR2 = assay: FACS of surface TLR2 on oral keratinocytes; format: cell-based, human; conditions: LPS (10 μg/ml), Phe (10 μg/ml), different concentration of folic acid, 24 hours
Experimental: Flow cytometry. NOKSI cells were seeded in 100 mm plates with a density of 1×10^6 cells per plate. Cells were treated with drugs, LPS, and folic acid alone or in combination. After NOKSI were detached using Corning Cell Lifter (Corning) and 10 mM EDTA in PBS, the cells were washed with FACS buffer (PBS containing 1% BSA [Sigma] and 2 mM EDTA). Cells were stained by immunofluorescence for CD282 (TLR2) and CD284 (TLR4). Fluorescent labeled antibodies at a dilution of 1:1000 in staining buffer with 2% FBS in PBS were added and incubated for 30 min in dark on ice. Cells were centrifuged and washed thrice in staining buffer and passed through a 70 μm cell strainer before data acquisition. Data analysis was performed using FlowJo (TreeStar, Ashland, OR, USA). All incubations were performed on ice.
Oral Keratinocytes Cells were treated with only LPS (10 μg/ml) for 24 hours. […] Cells were treated with LPS (10 μg/ml) and Phe (10 μg/ml) for 24 hours. […] Cells were treated with LPS (10 μg/ml), Phe (10 μg/ml), and FA ([…]) for 24 hours. […] FIG. 16.

[1] = tested on: drug-induced gingival overgrowth (DIGO); assay: Mice study #1: pilot DIGO model (suture + cyclosporine), gingival overgrowth; format: in vivo, BALB/c mice
Excerpt: Animal Study. […] Therefore, we developed a novel in-vivo anterior ligature model to develop DIGO. We examined two strains of mice, BALB/c and C57BL/6 were used. Sterile ligature (5-0 Silk thread) were placed around the lower central incisors on both sides in mice for 14 days at anaesthetized conditions using ketamine and xylazine. Mice were daily checked for placement of suture. […] The vehicle used to dissolve the drug was 10% ethanol and 10% polyethyleneglycol castor oil (Sigma-Aldrich, St. Louis MO) in sterilized distilled water to a volume of 100%. All mice were scarified at day 14. Euthanasia was performed using carbon dioxide followed by cervical dislocation.
In the combined prevention and treatment group, both modes of folic acid treatments were provided including PO and local gel application. […]
A 3Shape TRIOS® intraoral digital scanner was used to scan all of the dissected tissue and create a 3D STL (STereoLithography) file from each scan. […] The cropped scans were saved and imported into open source software platform 3DSlicer 4.8, where they were volumetrically analyzed using the “Volumes” module. The quantified volume values were statistically analyzed in GraphPad Prism® 7 (GraphPad Software Inc., CA, USA).

p-P65 = assay: Immunofluorescence of p-P65 nuclear translocation in oral keratinocytes; format: cell-based, human; conditions: 24 hours
Experimental: Immunostaining and fluorescence microscopy. The cultured cells were fixed with 4% paraformaldehyde followed by permeabilization with phosphate buffered saline (PBS) containing 0.1% Triton X-100 (PBS-T), and blocking with PBS-T containing 5% bovine serum albumin (BSA). Then, the cells were incubated with anti-pP65 antibody (Cell Signaling, USA) followed by Alexa Fluor 488 conjugated-goat anti-rabbit secondary antibody (Invitrogen, Grand Island). Rhodamine phalloidin (Invitrogen) and 4′,6-diamidino-2-phenylindole (Vector labs, Burlingame) were added to visualize the actin and nucleus respectively. The samples were mounted and examined using a Zoe microscope (BioRad, USA). The image analyses were performed using the ImageJ (NIH) software.
Oral Keratinocytes cells were cultured, and treated with CSA, LPS or FA alone or with combinations and incubated for 24 hours. The immunofluorescent images were taken to determine the translocation of p-P65 (green) to the nucleus (blue). Cells were counterstained with Phalloidin (cytoskeleton, red) and DAPI (nucleus).
Oral Keratinocytes cells were seeded in 24 well plates. […] Translocation of phospho-p65 (p-P65) protein to the nucleus was determined by fluorescence microscopy as shown in the green color. The morphology of cells and nucleus position were determined by palloidin and DAPI staining shown by red and blue colors respectively.

For Nc1nc2ncc(CNc3ccc(C(=O)N[C@@H](CCC(=O)O)C(=O)O)cc3)nc2c(=O)[nH]1 [folic acid], the “LITAF expression, pattern across groups” value (LITAF) was “a similar pattern”, the “TLR2 receptor on the cell surface” value (TLR2) was “do not alter” and the “gingival overgrowth, 3D volumetric analysis” value ([1]; prevention sample vs disease sample, overlaid scans) was “reduced gingival overgrowth”. For the same compound, the “gingival swelling and inflammation, clinical images” value ([1]; prevention: folic acid p.o. (10 μg/ml drinking water) & local gel, apparent at day 8, vs disease group) was “less swelling and inflammation”, the “translocation of p-P65 to the nucleus” value (p-P65; CSA, LPS or FA alone or in combinations) was “inhibits CSA-induced activation of phospho-P65” and the “translocation of phospho-p65 (p-P65) protein to the nucleus” value (p-P65; LPS, Phe, FA each 10 μg/ml) was “reduced nuclear translocation of p-P65”.
